Tested on: human ENTPD2 engineered B16LM3 clone B5
Assay: Human ENTPD2 engineered B16LM3 clone B5 model, combination with A2AR antagonist NIR178
Assay type: in vivo
Conditions: NIR178 p.o. 4 days on and 3 days off, 50 or 200 mg/kg; antibody or isotype 10 mg/kg i.v. day 1
Procedure: Human ENTPD2-engineered B16LM3 clone B5 was established in female C57BL/6 mice by subcutaneous injection of 0.5×10^6 cells into the right flank of each mouse. Once tumors reached approximately 50 mm^3, mice were randomized according to tumor volume into treatment groups (n=8 per group). Mice received an intravenous (i.v.) treatment of either anti-ENTPD2 mAb1 at a final dose of 10/mg/kg or a non-specific human IgG1 isotype control 10 mg/kg on day 1 of study. NIR178 was administered per os (p.o.) for 4 days on and 3 days off, starting at the beginning of study at either 50 mg/kg or 200 mg/kg. All doses were adjusted to individual mouse body weights. The study was carried out for thirteen days post treatment initiation and tumor volumes were assessed every other day to assess efficacy.

Nc1nc(-n2cccn2)nc(-n2cccn2)c1Br [NIR178, 5-bromo-2,6-di-(1H-pyrazol-1-yl)pyrimidine-4-amine]
anti-tumor efficacy: No significant anti-tumor efficacy
